# Laboratory results as given in US20160310613A1, “METHODS AND COMPOSITIONS FOR OVERCOMING DRUG-RESISTANCE IN CANCER BY TARGETED DELIVERY OF PRO-DRUG-NANO-POLYMERS” (priority 2015, published 2016).
# Experiments:
# [1] = test system: MCF-7 MDR Doxorubicin resistant cells; test: Epi-fluorescent microscopy of doxorubicin delivery and retention
# [2] = test system: SKOV-3 TR resistant Ovarian cancer cells; test: cells; type: cell-based
# Procedure: Human ovarian cancer (SKOV-3 TR) resistant cells were cultured using the same protocol described for culturing SKOV-3 TR resistant cells in Example 8 above. Cultured cells (SKOV-3 TR) were incubated with bispecific anti-Her-2 Affibody-anti-DTPA antibody at a concentration of 20 μg/ml for 24 hours at 37° C. […] After 24-48 h incubation at 37° C., viability was assessed by Trypan Blue exclusion test using CellTiter Blue® (Promega, Madison, Wis.) following the manufacturer's protocol as described above in Example 8.
# SKOV-3 sensitive and SKOV-3 TR resistant Ovarian cancer cells were cultured using the same protocol described in Examples 8 and 9 above. Cultured cells were incubated with bispecific anti-Her-2 Affibody-anti-DTPA antibody.
# [3] = test system: SKOV-3 sensitive Ovarian cancer cells; test: cells; conditions: Homo sapiens, SK-OV-3, read-out: IC50 value in SKOV-3 sensitive cells
# Procedure: (§1) Human ovarian cancer (SKOV-3) sensitive cells were grown in six well plates. Aliquots of 5000 cells/well were seeded in the cell culture treated 96 well plates and were grown for 24 hours. Cultured cells (SKOV-3) were incubated with bispecific anti-Her-2 Affibody-anti-DTPA antibody at a concentration of 20 or 40 μg/ml for 24 hours at 37° C. […] After 24 h incubation at 37° C., viability was assessed by Trypan Blue exclusion test using CellTiter Blue® (Promega, Madison, Wis.) following the manufacturer's protocol. Briefly, media was removed from plates containing cells incubated with agent-polymer conjugates. The plates were washed 2× with 200 μl of complete medium and then incubated with 50 μl of 1:50 dilution of CellTiter Blue® reagent for 2 hours. Cell viability was then evaluated by measuring the fluorescence (excitation 530 nm, emission 590 nm) using a Synergy HT multi-21 detection microplate reader (Biotek, Winooski, Vt.). Cells treated with complete media alone were used as controls to calculate the 100% cell viability and the studies were carried out in triplicates in at least 3 different assays. […] The above studies were repeated for 48 h incubation time.
# [4] = test system: SKOV-3 sensitive Ovarian cancer cells; conditions: cells pretargeted with anti-HER2/neu affibody, FIG. 7
# Procedure: as §1
compound,measurement,setting,value
"COc1cccc2c1C(=O)c1c(O)c3c(c(O)c1C2=O)C[C@@](O)(C(=O)CO)C[C@@H]3O[C@H]1C[C@H](N)[C@H](O)[C@H](C)O1 [free Dox, doxorubicin]",Doxorubicin fluorescence in cells,"[1]; 15 μg/ml, incubated 5 h, FIG. 8A",nuclear sequestration
same,Doxorubicin uptake in cells,"[1]; incubated 1 h, then Dox free medium 4 h, FIG. 8B",less Dox uptake occurred
"CC(=O)O[C@H]1C(=O)[C@@]2(C)[C@H]([C@H](OC(=O)c3ccccc3)[C@]3(O)C[C@H](OC(=O)[C@H](O)[C@@H](NC(=O)c4ccccc4)c4ccccc4)C(C)=C1C3(C)C)[C@]1(OC(C)=O)CO[C@@H]1C[C@@H]2O [free PTXL, Paclitaxel]",IC50,"[2]; Homo sapiens, SKOV3TR, free drug, FIG. 7",0.936 µg/mL
same,IC50 in SKOV-3 TR resistant cells relative to SKOV-3 sensitive cells,[2]; ratio resistant/sensitive,about 10 times higher
same,IC50,[3],0.089 µg/mL
DTPA-Doxorubicin-Poly Glutamic acid [D-Dox-PGA],Doxorubicin retention in cells,"[1]; pretargeted with bispecific biotinylated-anti-DTPA antibody, 1 h, then Dox free media 4 h, FIG. 8C",more Dox is retained
DTPA-Paclitaxel-Poly Glutamic acid [D-PTXL-PGA],Amount needed to obtain 50% cell killing in SKOV-3 TR cells relative to free PTXL,[2]; SKOV-3 TR cells,5 times less
same,IC50 value in paclitaxel resistant ovarian cancer cells,"[2]; cells pretargeted with anti-HER2/neu affibody, FIG. 7",0.069 µg/mL
same,Concentration needed to obtain 50% cell killing in SKOV-3 TR resistant relative to SKOV-3 sensitive cells,[2]; ratio resistant/sensitive,2 time more
same,IC50 value in paclitaxel sensitive ovarian cancer cells,[4],0.089 µg/mL
